From the supplement of paper PMC10307832

Experiments:
Test in all cases: relative viability (nuclei count vs DMSO), 5 days (fraction); higher = more cells survive
[1] = compound: Cc1ccc(C(=O)Nc2cccc(C(F)(F)F)c2)cc1Nc1cncc(C(N)=O)c1 [ALW-II-49-7]
Procedure, shortened: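 Lung cancer cell lines in 1536-well plates were exposed by pinning to five library-drug doses (not always all listed) √10 apart, following an overnight hold at 37 °C. MetaXpress counted Hoechst-stained nuclei from 4× images taken after 5 days without medium change. Viability is the median ratio of treated-well to vehicle-well nuclei across plates. Plates required control CV below 25% and at least one doubling.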

[2] = compound: C1CC1C(=O)NC2=NNC3=C2C=CC(=C3)C4=CC(=CC=C4)C(=O)NC5CC5 [XMD13-2] + CC(=O)Nc1cccc(-n2c(=O)n(C3CC3)c(=O)c3c(Nc4ccc(I)cc4F)n(C)c(=O)c(C)c32)c1 [Trametinib] (partner 0.02 µM)
Procedure, shortened: (§1)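 Lung cancer cell lines were pin-tool dosed in 1536-well plates on the day after seeding, with either a lone drug or a fixed anchor-drug dose plus five library-drug doses (not always all listed) in √10 steps. Nuclei were counted on 4× images after 5 days. Relative viability is the ratio of treated-well to vehicle-well nuclei counts, with each value a median of duplicate plates.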

[3] = compound: Cc1ccc(C(=O)Nc2cccc(C(F)(F)F)c2)cc1Nc1cncc(C(N)=O)c1 [ALW-II-49-7] + CC1(C)CCC(c2ccc(Cl)cc2)=C(CN2CCN(c3ccc(C(=O)NS(=O)(=O)c4ccc(N[C@H](CCN5CCOCC5)CSc5ccccc5)c(S(=O)(=O)C(F)(F)F)c4)cc3)CC2)C1 [Navitoclax] (partner 0.5 µM)
Procedure, shortened: as §1

[4] = compound: C1CC1C(=O)NC2=NNC3=C2C=CC(=C3)C4=CC(=CC=C4)C(=O)NC5CC5 [XMD13-2] + O=C(CCCCCCC(=O)Nc1ccccc1)NO [Vorinostat] (partner 1 µM)
Procedure, shortened: as §1

| Cell Line | relative viability ([1]; 0.08 µM) | relative viability ([1]; 0.253 µM) | relative viability ([1]; 0.8 µM) | relative viability ([1]; 2.53 µM) | relative viability ([1]; 8 µM) | relative viability ([2]; first compound 0.05 µM) | relative viability ([2]; first compound 0.1581 µM) | relative viability ([2]; first compound 0.5 µM) | relative viability ([2]; first compound 1.581 µM) | relative viability ([2]; first compound 5 µM) | relative viability ([3]; first compound 0.08 µM) | relative viability ([3]; first compound 0.253 µM) | relative viability ([3]; first compound 0.8 µM) | relative viability ([3]; first compound 2.53 µM) | relative viability ([3]; first compound 8 µM) | relative viability ([4]; first compound 0.05 µM) | relative viability ([4]; first compound 0.1581 µM) | relative viability ([4]; first compound 0.5 µM) | relative viability ([4]; first compound 1.581 µM) | relative viability ([4]; first compound 5 µM) |
| --- | --- | --- | --- | --- | --- | --- | --- | --- | --- | --- | --- | --- | --- | --- | --- | --- | --- | --- | --- | --- |
| NCI-H2023 | 0.965 | 0.963 | 0.995 | 0.96 | 0.911 | 0.621 | 0.54 | 0.555 | 0.561 | 0.633 | 0.925 | 1.1 | 1.03 | 1.01 | 1.02 | 0.837 | 0.668 | 0.696 | 0.731 | 0.94 |
| NCI-H2085 | 1.01 | 1.05 | 0.985 | 1.03 | 0.995 | 0.62 | 0.568 | 0.472 | 0.5 | 0.514 | 1.13 | 1.15 | 1.14 | 1.18 | 1.08 | 0.897 | 0.745 | 0.842 | 0.711 | 0.81 |
| NCI-H2087 | 1.07 | 1.01 | 1.06 | 1.02 | 0.915 | 0.194 | 0.196 | 0.198 | 0.198 | 0.23 | 1.12 | 0.937 | 0.838 | 0.907 | 0.949 | 0.686 | 0.902 | 0.729 | 0.898 | 0.853 |
| NCI-H2126 | 0.918 | 1.03 | 1.02 | 0.926 | 0.992 | 0.571 | 0.55 | 0.588 | 0.561 | 0.531 | 0.86 | 0.934 | 0.855 | 0.877 | 0.862 | 0.849 | 0.731 | 0.745 | 0.749 | 0.735 |
| NCI-H2170 | 1 | 0.969 | 0.973 | 0.908 | 0.966 | 0.94 | 0.929 | 0.965 | 0.883 | 0.95 | 0.701 | 0.568 | 0.569 | 0.655 | 0.592 | 0.904 | 0.753 | 0.855 | 0.794 | 0.809 |
| NCI-H2228 | 1.09 | 0.783 | 0.735 | 0.904 | 0.85 | 0.672 | 0.577 | 0.517 | 0.602 | 0.634 | 1.4 | 0.809 | 0.628 | 0.838 | 0.84 | 0.642 | 0.573 | 0.507 | 0.76 | 0.752 |
| NCI-H2347 | 1.05 | 0.968 | 1.04 | 0.973 | 0.949 | 0.294 | 0.268 | 0.211 | 0.291 | 0.265 | 0.899 | 0.807 | 0.721 | 0.44 | 0.685 | 0.565 | 0.619 | 0.765 | 0.562 | 0.661 |
| NCI-H2405 | 1.01 | 1.06 | 0.961 | 0.963 | 0.802 | 0.73 | 0.656 | 0.628 |  | 0.65 | 0.761 | 0.974 | 0.779 | 0.241 | 0.735 | 1.08 | 0.934 | 1.04 |  | 0.965 |
| NCI-H3122 | 1.05 | 0.868 | 1.06 | 1.05 | 1.07 | 0.251 | 0.198 | 0.205 | 0.235 | 0.214 | 1.06 | 1.06 | 1.07 | 1.09 | 1.05 | 1.04 | 0.987 | 1.1 | 0.995 | 0.941 |
| PC-3 [JPC-3] | 1.08 | 1.04 | 1.04 | 1.13 | 0.971 | 0.681 | 0.721 | 0.737 |  | 0.778 | 0.693 | 0.891 | 0.757 | 0.816 | 0.82 | 0.804 | 0.857 | 0.916 |  | 0.734 |
| PC-14 | 0.933 | 0.98 | 0.95 | 0.961 | 0.898 | 0.892 | 0.713 | 0.788 | 0.723 | 0.983 | 1.04 | 0.92 | 0.923 | 0.911 | 0.86 | 0.951 | 0.934 | 0.749 | 0.825 | 0.975 |
| RERF-LC-KJ | 1.02 | 1.06 | 0.997 | 0.911 | 0.939 | 0.984 | 0.83 | 0.889 | 0.8 | 0.782 | 0.876 | 1.27 | 0.938 | 1.05 | 0.866 | 0.783 | 0.653 | 0.686 | 0.616 | 0.806 |
| SK-LU-1 | 1.04 | 1.11 | 1.07 | 0.769 | 0.746 | 0.513 | 0.474 | 0.573 | 0.56 | 0.511 | 1.09 | 0.769 | 1.2 | 0.585 | 0.474 | 0.874 | 0.831 | 0.959 | 0.719 | 0.74 |
| SK-MES-1 | 0.957 | 0.97 | 0.963 | 0.851 | 0.742 | 0.576 | 0.532 | 0.508 | 0.508 | 0.58 | 1.03 | 1.34 | 1.15 | 0.961 | 0.647 | 1.16 | 1.09 | 1.07 | 1.03 | 1.31 |
| SW 1573 | 0.976 | 1.12 | 1.04 | 1.05 | 0.938 | 0.585 | 0.53 | 0.674 | 0.533 | 0.536 | 1.01 | 0.932 | 1.21 | 1.11 | 0.787 | 0.786 | 0.625 | 0.853 | 0.844 | 0.385 |
